Activity calls are given as the source filed them.
Tests used:
[1] = P. falciparum late gametocyte killing, dose response, luminescence (AID 1117278); assay type: functional, cell-based;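 note: gametocytes exposed to compound for 24 hours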
[2] = Jurkat T cell cytotoxicity, dose response, cytotoxicity control for P. falciparum gametocyte viability project, luminescence (AID 1117277); assay type: functional, cell-based;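 note: potency reflects loss of cellular ATP meaning fewer viable cells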
Prothrombin = Prothrombin (Homo sapiens, UniProt P00734); experiment: Thrombin 1536 HTS Dose Response Confirmation. [Related pubchem assays: 1046 (Thrombin 1536 HTS; hits were confirmed in this assay)]; assay type: functional
[3] = M. tuberculosis H37Rv growth inhibitors, H37Rv strain (AID 1626); assay type: functional
[4] = target: Peroxisome proliferator-activated receptor gamma/Nuclear receptor corepressor 2 (Homo sapiens, UniProt P37231+Q9Y618); assay type: functional
[5] = target: Photoreceptor-specific nuclear receptor (Homo sapiens, UniProt Q9Y5X4); assay type: functional;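 note: potency for compounds that break the NR2E3 corepressor complex and count as activators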
14-3-3 protein gamma = target: T1, 14-3-3 protein gamma (Homo sapiens, UniProt P61981); experiment: modulators of 14-3-3 gamma client binding – dose response (AID 711); assay type: functional
T1 sequence (P61981 whole entry): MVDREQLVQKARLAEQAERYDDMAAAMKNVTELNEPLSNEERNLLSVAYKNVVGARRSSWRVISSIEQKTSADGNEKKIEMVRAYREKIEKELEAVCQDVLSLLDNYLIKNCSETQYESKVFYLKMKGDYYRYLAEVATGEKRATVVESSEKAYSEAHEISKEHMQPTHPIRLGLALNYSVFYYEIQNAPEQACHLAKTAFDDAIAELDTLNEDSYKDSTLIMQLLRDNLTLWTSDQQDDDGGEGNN

Bcl-2-like protein 10 = target: T2, Bcl-2-like protein 10 (Homo sapiens, UniProt Q9HD36); experiment: displacers of TR3 peptide from Bcl-B, primary screen, selectivity assay for Bfl-1 inhibitor project, biochemical, fluorescence polarization, FITC-TR3 peptide (AID 748);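 note: fluorescence polarization from a fluorescein-labelled TR3 peptide binding purified Bcl-B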
T2 sequence (Q9HD36 whole entry): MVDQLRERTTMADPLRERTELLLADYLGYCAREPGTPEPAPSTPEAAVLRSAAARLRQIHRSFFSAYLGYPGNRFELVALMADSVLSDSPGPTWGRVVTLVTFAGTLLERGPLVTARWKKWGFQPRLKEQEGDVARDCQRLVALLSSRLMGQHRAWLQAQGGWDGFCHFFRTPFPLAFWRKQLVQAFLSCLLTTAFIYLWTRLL

[6] = A cytotoxicity screen of small molecule inhibitors of the PhoP region in Salmonella typhi identified in the primary screen. [Related pubchem assays: 1850, 1864, 1985 ]; assay type: functional
[7] = target: Induced myeloid leukemia cell differentiation protein Mcl-1 (Homo sapiens, UniProt Q07820); assay type: functional
Cytochrome P450 1A2 = target: T3, Cytochrome P450 1A2 (Homo sapiens, UniProt P05177);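 note: PubChem cytochrome P450 panel assay, CYP1A2 panel member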
T3 sequence (P05177 whole entry): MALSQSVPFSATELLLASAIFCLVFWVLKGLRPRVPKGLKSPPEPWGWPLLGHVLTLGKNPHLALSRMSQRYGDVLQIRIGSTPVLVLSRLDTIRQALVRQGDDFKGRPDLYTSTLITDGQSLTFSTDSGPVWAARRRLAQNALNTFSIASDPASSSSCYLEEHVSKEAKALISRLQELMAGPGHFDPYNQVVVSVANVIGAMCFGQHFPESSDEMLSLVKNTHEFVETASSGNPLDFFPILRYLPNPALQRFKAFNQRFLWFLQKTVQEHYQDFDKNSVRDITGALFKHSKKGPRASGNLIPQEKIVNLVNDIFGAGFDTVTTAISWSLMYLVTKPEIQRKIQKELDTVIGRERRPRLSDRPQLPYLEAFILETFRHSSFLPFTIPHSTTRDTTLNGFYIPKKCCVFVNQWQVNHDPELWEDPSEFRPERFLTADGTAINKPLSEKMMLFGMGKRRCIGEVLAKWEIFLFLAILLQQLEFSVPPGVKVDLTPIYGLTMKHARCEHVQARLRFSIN

[8] = Vero cell cytotoxicity, dose response, cytotoxicity control for Vif-APOBEC3G degradation inhibitor project, Vero cells (AID 1117358); assay type: functional; details: Human immunodeficiency virus 1, Vero
[9] = target: Peroxisome proliferator-activated receptor gamma/Nuclear receptor coactivator 2 (Homo sapiens, UniProt P37231); experiment: TR-FRET dose response biochemical High Throughput Screening assay for agonists of the steroid receptor coactivator 2 (SRC-2) recruitment by the peroxisome proliferator-activated receptor gamma (PPAR gamma): non-selective agonists. [Related pubchem assays: 1297, 1032 ]; assay type: functional
[10] = target: Peroxisome proliferator-activated receptor gamma/Nuclear receptor coactivator 1 (Homo sapiens, UniProt P37231); experiment: TR-FRET dose response biochemical High Throughput Screening assay for agonists of the steroid receptor coactivator 1 (SRC-1) recruitment by the peroxisome proliferator-activated receptor gamma (PPAR gamma): non-selective agonists. [Related pubchem assays (depositor defined):AID1300, AID1808, AID504735, AID631]; assay type: protein assay
[11] = target: Peroxisome proliferator-activated receptor gamma/Nuclear receptor coactivator 3 (Homo sapiens, UniProt P37231); experiment: TR-FRET dose response biochemical High Throughput Screening assay for agonists of the steroid receptor coactivator 3 (SRC-3) recruitment by the peroxisome proliferator-activated receptor gamma (PPAR gamma): non-selective agonists. [Related pubchem assays: 1301 (Confirmation screen.), 1048 (Primary screen.)]; assay type: functional
[12] = Luminescence Cell-Based Dose Confirmation HTS to Identify Activators of 5'UTR Stem-Loop Driven Alpha-Synuclein mRNA Translation in H4 Neuroglioblastoma Cells. [Related pubchem assays: 1829 (Project Summary), 1814 (Primary HTS)]; assay type: functional
[13] = Luminescence Cell-Based Dose Response HTS to Identify Activators of Luciferase Translation or Activity in H4 […] Cells. [Related pubchem assays: 1829 (Project Summary), 1814 (Primary HTS)]; assay type: functional
H4 = experiment: Luminescence Cell-Based Dose Response HTS to Identify Activators of 5'UTR Stem-Loop Driven Prion Protein mRNA Translation in H4 Neuroglioblastoma Cells. [Related pubchem assays: 1829 (Project Summary), 1814 (Primary HTS)]; assay type: functional; details: Homo sapiens
[14] = target: Eukaryotic translation initiation factor 4H (Homo sapiens, UniProt Q15056); experiment: human eIF4H binding inhibitors, primary screen, translation initiation inhibitor project, biochemical, uHTS, fluorescence polarization (AID 2012)
[15] = target: Polyadenylate-binding protein 1 (Homo sapiens, UniProt P11940); experiment: PABP poly(A) RNA binding inhibitors, primary screen, biochemical, fluorescence polarization, uHTS (AID 2014)
Estrogen receptor = target: T4, Estrogen receptor (Homo sapiens, UniProt P03372);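 note: potency for inhibiting coactivator peptide recruitment to the receptor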
T4 sequence (P03372 whole entry): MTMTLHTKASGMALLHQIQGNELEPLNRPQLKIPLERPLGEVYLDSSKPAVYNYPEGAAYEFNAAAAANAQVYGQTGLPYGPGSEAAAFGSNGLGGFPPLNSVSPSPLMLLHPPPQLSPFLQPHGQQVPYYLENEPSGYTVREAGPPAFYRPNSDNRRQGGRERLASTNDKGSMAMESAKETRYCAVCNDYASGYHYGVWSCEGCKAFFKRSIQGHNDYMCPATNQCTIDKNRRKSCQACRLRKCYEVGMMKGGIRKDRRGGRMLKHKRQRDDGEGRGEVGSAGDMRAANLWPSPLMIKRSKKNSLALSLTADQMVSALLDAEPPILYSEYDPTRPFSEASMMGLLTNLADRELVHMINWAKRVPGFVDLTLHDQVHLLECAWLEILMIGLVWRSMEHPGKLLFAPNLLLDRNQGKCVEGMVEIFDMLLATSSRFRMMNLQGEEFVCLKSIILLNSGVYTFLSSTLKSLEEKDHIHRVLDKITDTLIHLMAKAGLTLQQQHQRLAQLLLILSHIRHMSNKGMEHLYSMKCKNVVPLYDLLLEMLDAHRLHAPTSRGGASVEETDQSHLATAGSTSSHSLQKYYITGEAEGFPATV

Beta-galactosidase = Beta-galactosidase (Escherichia coli, UniProt Q8VNN2); experiment: beta-galactosidase enzyme inhibitors and activators, dose response, artefact control for CCR6 antagonist project, biochemical, E. coli enzyme, set 3 (AID 504712); assay type: functional
[16] = target: Heat shock protein HSP 90-alpha (Homo sapiens, UniProt P07900); assay type: functional, organism-based
Phosphomannomutase 2 = target: T5, Phosphomannomutase 2 (Homo sapiens, UniProt O15305); experiment: Counter screen SAR assay for PMM2 inhibitors via a fluorescence intensity assay. [Related pubchem assays (depositor defined):AID1545, AID1574]
T5 sequence (O15305 whole entry): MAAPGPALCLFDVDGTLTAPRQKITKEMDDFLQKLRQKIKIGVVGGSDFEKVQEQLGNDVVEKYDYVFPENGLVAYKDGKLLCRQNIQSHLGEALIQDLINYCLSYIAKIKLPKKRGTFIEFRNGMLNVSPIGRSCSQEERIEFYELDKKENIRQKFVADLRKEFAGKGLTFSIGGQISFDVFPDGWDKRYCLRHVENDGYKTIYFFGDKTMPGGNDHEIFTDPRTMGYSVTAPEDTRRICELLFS

[17] = target: T6, Mannose-6-phosphate isomerase (Homo sapiens, UniProt P34949); experiment: inhibitors of human PMI, primary screen, biochemical, fluorescence intensity, coupled assay (AID 1209)
T6 sequence (P34949 whole entry): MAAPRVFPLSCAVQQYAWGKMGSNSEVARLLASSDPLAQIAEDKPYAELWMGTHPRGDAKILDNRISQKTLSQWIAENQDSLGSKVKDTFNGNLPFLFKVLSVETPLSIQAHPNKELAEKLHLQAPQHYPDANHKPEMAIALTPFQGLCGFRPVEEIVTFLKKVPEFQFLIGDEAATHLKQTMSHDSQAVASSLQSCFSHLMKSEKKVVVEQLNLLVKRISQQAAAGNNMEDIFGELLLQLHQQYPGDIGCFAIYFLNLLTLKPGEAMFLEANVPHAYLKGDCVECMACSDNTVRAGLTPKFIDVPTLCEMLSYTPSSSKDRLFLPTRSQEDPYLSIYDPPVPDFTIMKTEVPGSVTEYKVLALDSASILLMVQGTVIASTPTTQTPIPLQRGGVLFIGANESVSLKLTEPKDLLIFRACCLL

Sequence of Peroxisome proliferator-activated receptor gamma/Nuclear receptor corepressor 2 (P37231 whole entry): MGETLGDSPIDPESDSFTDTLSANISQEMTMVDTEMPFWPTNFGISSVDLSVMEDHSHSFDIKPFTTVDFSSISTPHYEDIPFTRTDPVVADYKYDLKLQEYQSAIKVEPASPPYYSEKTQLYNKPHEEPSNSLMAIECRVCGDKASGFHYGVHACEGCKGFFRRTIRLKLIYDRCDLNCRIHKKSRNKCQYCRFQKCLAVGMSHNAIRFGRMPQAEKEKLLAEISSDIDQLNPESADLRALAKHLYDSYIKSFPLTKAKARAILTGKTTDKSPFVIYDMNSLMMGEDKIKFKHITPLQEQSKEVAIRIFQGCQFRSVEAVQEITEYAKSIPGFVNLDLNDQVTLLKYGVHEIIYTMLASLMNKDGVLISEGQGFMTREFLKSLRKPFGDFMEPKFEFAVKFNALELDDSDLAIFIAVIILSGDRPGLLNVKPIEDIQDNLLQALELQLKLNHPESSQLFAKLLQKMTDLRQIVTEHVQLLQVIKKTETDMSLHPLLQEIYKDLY
Sequence of Peroxisome proliferator-activated receptor gamma/Nuclear receptor corepressor 2 (Q9Y618 whole entry): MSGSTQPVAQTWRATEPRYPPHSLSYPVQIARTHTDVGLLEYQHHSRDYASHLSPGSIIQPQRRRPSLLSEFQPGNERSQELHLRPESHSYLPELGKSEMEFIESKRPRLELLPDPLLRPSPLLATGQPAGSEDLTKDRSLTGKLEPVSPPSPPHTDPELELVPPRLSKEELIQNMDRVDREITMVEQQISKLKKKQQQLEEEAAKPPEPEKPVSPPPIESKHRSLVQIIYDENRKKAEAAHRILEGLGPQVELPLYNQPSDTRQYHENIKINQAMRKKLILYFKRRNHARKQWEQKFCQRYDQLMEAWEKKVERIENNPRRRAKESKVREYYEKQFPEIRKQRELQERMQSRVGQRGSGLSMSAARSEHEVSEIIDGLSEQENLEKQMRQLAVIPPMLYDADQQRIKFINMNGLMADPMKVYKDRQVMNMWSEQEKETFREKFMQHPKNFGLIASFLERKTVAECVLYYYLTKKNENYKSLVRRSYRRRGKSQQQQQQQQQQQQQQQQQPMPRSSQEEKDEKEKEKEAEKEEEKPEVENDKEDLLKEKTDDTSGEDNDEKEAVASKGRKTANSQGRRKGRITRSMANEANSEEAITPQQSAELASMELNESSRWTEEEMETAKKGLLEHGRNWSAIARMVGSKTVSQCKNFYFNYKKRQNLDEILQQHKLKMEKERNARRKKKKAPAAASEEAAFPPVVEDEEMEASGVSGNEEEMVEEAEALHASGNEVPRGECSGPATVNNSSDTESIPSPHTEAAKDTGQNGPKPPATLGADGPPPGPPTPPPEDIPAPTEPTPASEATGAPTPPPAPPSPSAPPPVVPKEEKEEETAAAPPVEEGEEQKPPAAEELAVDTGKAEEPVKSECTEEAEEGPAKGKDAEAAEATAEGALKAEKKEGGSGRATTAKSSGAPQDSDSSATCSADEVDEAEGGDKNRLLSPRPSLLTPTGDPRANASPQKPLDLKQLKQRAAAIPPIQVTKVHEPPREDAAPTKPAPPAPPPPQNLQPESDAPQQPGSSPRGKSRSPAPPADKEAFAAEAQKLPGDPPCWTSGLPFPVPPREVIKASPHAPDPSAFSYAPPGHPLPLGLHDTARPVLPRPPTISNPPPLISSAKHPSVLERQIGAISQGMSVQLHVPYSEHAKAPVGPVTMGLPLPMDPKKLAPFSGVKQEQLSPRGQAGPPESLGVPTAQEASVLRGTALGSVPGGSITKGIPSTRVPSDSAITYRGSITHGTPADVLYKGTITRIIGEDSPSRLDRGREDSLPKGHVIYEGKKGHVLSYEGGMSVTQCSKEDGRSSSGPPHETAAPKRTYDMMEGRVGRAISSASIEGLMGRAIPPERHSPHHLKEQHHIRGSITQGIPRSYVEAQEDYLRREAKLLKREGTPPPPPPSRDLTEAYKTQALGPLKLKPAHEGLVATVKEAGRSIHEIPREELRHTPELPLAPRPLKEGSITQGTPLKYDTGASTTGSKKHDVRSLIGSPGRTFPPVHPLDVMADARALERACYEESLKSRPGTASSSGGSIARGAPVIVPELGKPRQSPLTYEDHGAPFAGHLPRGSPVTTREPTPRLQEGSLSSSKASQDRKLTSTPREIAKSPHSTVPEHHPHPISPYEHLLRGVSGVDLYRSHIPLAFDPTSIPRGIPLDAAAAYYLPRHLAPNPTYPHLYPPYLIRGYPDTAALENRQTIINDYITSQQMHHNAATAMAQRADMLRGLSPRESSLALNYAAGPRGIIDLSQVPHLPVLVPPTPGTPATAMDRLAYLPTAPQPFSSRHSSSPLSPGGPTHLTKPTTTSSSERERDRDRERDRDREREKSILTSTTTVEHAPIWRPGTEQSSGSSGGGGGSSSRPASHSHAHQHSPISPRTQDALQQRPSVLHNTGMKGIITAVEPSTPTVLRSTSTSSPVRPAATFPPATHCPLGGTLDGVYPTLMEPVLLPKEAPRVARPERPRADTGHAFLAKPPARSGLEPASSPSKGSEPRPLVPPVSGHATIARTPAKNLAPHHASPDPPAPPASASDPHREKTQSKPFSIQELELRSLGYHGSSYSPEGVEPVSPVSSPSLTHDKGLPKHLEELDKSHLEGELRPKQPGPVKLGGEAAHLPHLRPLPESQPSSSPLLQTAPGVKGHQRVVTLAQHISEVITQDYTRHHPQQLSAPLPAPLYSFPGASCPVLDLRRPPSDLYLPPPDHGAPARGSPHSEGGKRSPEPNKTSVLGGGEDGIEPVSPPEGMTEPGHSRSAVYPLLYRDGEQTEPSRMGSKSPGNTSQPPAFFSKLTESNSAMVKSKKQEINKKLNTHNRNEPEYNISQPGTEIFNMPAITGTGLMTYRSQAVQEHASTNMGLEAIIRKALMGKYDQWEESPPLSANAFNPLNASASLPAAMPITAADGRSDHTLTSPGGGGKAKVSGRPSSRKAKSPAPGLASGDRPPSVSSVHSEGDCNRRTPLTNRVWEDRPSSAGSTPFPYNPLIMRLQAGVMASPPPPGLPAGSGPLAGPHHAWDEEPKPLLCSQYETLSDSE
Sequence of Photoreceptor-specific nuclear receptor (Q9Y5X4 whole entry): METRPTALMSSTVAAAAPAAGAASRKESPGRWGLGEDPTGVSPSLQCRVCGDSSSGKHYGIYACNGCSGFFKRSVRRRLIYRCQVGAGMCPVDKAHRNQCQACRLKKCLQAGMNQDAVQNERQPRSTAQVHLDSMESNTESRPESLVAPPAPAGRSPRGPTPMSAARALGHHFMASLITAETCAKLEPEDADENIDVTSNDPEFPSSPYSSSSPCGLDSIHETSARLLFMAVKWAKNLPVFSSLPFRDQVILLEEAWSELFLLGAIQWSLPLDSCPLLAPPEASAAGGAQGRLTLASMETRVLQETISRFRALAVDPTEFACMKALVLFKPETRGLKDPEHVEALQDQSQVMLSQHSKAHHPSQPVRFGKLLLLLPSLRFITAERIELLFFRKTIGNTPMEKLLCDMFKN
Sequence of Polyadenylate-binding protein 1 (P11940 whole entry): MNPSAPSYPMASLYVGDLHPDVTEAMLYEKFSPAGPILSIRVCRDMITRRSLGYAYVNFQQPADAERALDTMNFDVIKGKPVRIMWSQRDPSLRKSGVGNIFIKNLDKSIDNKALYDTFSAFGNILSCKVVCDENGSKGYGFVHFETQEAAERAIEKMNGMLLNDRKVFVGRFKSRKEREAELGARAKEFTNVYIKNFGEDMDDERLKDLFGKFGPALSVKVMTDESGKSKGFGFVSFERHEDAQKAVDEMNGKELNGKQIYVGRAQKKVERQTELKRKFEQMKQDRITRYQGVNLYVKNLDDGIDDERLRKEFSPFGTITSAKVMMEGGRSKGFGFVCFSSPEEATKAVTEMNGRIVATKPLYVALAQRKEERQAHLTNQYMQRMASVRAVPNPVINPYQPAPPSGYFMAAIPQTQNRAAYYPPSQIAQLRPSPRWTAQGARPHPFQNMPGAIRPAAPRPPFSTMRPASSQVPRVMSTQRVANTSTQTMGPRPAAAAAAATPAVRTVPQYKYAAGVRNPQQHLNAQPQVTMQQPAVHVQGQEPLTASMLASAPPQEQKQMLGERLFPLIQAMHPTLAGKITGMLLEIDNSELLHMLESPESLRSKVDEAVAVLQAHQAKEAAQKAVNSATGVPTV
Sequence of Induced myeloid leukemia cell differentiation protein Mcl-1 (Q07820 whole entry): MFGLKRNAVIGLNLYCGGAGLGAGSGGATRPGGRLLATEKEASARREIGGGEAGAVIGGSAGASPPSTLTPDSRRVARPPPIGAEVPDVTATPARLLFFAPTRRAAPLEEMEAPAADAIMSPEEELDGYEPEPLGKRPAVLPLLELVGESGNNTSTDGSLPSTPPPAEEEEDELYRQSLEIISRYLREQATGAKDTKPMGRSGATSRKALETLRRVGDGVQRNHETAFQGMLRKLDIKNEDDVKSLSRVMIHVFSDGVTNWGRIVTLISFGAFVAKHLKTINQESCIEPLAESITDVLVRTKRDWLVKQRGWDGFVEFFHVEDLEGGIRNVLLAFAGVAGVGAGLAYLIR

SMILES: NS(=O)(=O)c1ccc(N2CCCC2=O)c([N+](=O)[O-])c1
- IC50 [1]: > 109 µM (inactive)
- IC50 [2]: > 83.2 µM (inactive)

SMILES: CC(=O)n1nc(-c2ccc(C)cc2)nc1NCc1ccco1
- IC50 (Prothrombin): 1.82 µM (active)

SMILES: COc1ccc(NC(=O)CCc2nc(-c3ccccc3F)no2)cc1
- IC50 [3]: > 100 µM (active)

SMILES: COc1ccc(C(=O)NNC(=O)C(Cc2ccc(O)cc2)NC(=O)c2ccccc2NC(=O)c2ccc(OC)cc2)cc1 (configuration not stated)
- IC50 [4]: > 39.8 µM (not active)
- IC50 [5]: > 39.8 µM (not active)

SMILES: COC(=O)Cn1cc(C(=O)c2cccs2)c2ccccc21
- IC50 (Prothrombin): > 50 µM (inconclusive)

SMILES: Cc1ccc(C(=O)NCC(C)(C)O)cc1
- IC50 (14-3-3 protein gamma): > 50 µM (not active)

SMILES: Cc1cc(C)c(NC(=O)CN(c2ccccc2)S(=O)(=O)N(C)C)c(C)c1
- IC50 (Bcl-2-like protein 10): 69.2 µM (inactive)

SMILES: Cc1cc(NS(=O)(=O)c2ccc(Nc3nc(-c4sc(NC(=O)c5ccccc5)nc4C)cs3)cc2)no1
- EC50 [6]: > 50 µM (active)
- IC50 [7]: 2.46 µM (active)

SMILES: Cc1ccc(NS(=O)(=O)c2ccc(OCC(=O)Nc3cccc([N+](=O)[O-])c3)c(C)c2)cc1
- AC50 (Cytochrome P450 1A2): 22.4 µM (inconclusive)
- CC50 [8]: > 40 µM (active)

SMILES: CCOc1cc(C2NC(=O)NC(O)(C(F)(F)F)C2C(=O)c2ccc(Cl)cc2)ccc1O (configuration not stated)
- IC50 (Prothrombin): > 50 µM (not active)

SMILES: COc1cc(C(=O)N2CCC(n3cnc4cc(F)ccc43)CC2)cc(OC)c1OC
- IC50 [1]: > 109 µM (inactive)
- IC50 [2]: > 83.3 µM (inactive)

SMILES: CN(C)CCCN1C(=O)C(O)=C(C(=O)c2cc3ccccc3o2)C1c1ccccc1 (configuration not stated)
- EC50 [9]: 4.26 µM (active)
- EC50 [10]: 6.07 µM (active)
- IC50 [4]: 5.04 µM (active)
- EC50 [11]: > 79.4 µM (not active)
- IC50 [5]: > 39.8 µM (not active)

SMILES: Nc1ccccc1Nc1cc(-c2ccccc2)[nH]n1
- EC50 [12]: 14.1 µM (active)
- IC50 [3]: > 100 µM (active)
- EC50 [13]: 19.8 µM (active)
- EC50 (H4): 12.1 µM (active)

SMILES: O=C(NCc1ccco1)C1c2ccccc2Oc2ccccc21
- IC50 [14]: 15.7 µM (active)
- IC50 [15]: 71.3 µM (active)

SMILES: Cc1cccc2cc(C(c3nnnn3C(C)(C)C)N(Cc3ccco3)CC3CCCO3)c(=O)[nH]c12 (configuration not stated)
- IC50 (Estrogen receptor): 13.3 µM (active)
- IC50 (Bcl-2-like protein 10): > 100 µM (inactive)

SMILES: Cc1ccc(-n2c(=S)[nH]c3c(oc4ccccc43)c2=O)cc1C
- IC50 [4]: 7.61 µM (active)
- IC50 [5]: 4.11 µM (active)

SMILES: CCOc1ccc(-n2cc(C(=O)N3CCN(C)CC3)c3cc(OC)c(OC)cc3c2=O)cc1
- IC50 (14-3-3 protein gamma): > 50 µM (not active)

SMILES: COc1ccc(NC(=O)CSC2=NCCN2)cc1
- IC50 [3]: > 100 µM (active)

SMILES: COc1cccc2cc(-c3cc(=O)oc4ccc(O)cc34)oc12
- IC50 [14]: 43.1 µM (active)
- IC50 [15]: > 100 µM (inactive)

SMILES: COc1ccccc1CN(C)C(C)C(=O)Nc1cccc(C(C)=O)c1 (configuration not stated)
- IC50 [1]: > 109 µM (inactive)
- IC50 [2]: > 83.3 µM (inactive)

SMILES: Cc1cc(C)cc(N2C(=O)C=CC2=O)c1
- IC50 (Beta-galactosidase): > 66.6 µM (inactive)
- AC50 [16]: 0.499 µM (active)

SMILES: Cc1ccc(C)c(-n2[nH]c3ccccc3c2=O)c1
- IC50 (Phosphomannomutase 2): > 100 µM (inactive)

SMILES: C(=N/Nc1nccs1)/c1cccnc1
- EC50 [6]: > 50 µM (active)

SMILES: Cn1c(=O)[nH]c(=O)c2c1nc(Br)n2C/C=N/Nc1ccccc1
- IC50 [17]: > 50 µM (not active)
